Measurements reported in publication PMC9611727, “Optimization of a Novel Mandelamide-Derived Pyrrolopyrimidine Series of PERK Inhibitors” (Pharmaceutics, 2022).
pIC50: −log10 of the molar value.

Columns and labels:
FLT3 [1] = target: T1, FLT3 (Homo sapiens, UniProt P36888); assay: scanMAX kinase panel; type: binding; design: purchased DiscoverX scanMAX; conditions: read-out: % Control; for remaining binding at 1 µM: 1000 nM
T1 sequence (P36888 27-993): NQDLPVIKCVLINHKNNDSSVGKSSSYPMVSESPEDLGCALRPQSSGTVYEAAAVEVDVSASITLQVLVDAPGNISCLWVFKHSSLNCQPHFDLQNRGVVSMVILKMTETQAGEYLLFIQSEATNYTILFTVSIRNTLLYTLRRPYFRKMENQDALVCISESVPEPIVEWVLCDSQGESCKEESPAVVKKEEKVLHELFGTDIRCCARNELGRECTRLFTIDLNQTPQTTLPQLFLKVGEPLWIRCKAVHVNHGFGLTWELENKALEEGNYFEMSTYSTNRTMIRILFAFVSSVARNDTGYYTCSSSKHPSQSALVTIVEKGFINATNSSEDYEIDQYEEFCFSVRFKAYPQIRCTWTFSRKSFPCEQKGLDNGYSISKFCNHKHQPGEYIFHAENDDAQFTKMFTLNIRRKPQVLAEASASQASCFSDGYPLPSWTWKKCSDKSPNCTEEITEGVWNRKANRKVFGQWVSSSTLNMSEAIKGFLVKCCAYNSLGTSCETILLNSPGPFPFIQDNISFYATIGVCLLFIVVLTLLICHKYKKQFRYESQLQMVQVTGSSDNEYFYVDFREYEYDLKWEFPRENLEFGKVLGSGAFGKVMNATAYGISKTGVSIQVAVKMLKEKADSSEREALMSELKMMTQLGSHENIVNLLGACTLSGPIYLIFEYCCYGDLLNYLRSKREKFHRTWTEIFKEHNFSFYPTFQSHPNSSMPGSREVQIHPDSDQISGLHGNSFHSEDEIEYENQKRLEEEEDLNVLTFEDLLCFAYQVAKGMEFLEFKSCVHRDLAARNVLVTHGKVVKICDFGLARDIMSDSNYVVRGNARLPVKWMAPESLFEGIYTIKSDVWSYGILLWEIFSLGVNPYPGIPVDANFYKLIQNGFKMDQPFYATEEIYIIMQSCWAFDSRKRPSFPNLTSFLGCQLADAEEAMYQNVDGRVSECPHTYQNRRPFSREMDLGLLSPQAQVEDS
Source text: Supplemental Table S2. scanMAXSM Kinome Assay Results. Complete tabulated data of all 468 kinases from the panel, including
403 wild-type and 65 mutant isoforms. […] Cmpd 11 and Cmpd 24

786-O RCC xenografts = assay: 786-O ccRCC tumor xenograft study; type: in vivo; conditions: for tolerability by body weight measurement / tumor growth inhibition: 30 mg/kg BID oral, 29 days
Protocol: In vivo studies of the effect of pyrrolopyrimidines on 786-O xenograft inhibition follow a method published elsewhere. Female BALB/c nude mice were inoculated subcutaneously with 786-O tumor cells (5 × 10^6) in 0.1 mL of PBS. Animals were randomized when tumors reached 100–200 mm^3 into treatment groups. […] Tumor volumes were measured by caliper and the volume was expressed in mm^3 using the formula: V = (L × W × W)/2, where V, L, and W represent tumor volume, length, and width, respectively. All studies were conducted following an IACUC-approved protocol (AN-1903-05-1798). Experimental data management and reporting were in accordance with applicable Crown Bioscience’s Guidelines and Standard Operating Procedures.

Kasumi-1 (FLT3wt) = assay: Cell viability assay, Kasumi-1; type: cell-based; conditions: Homo sapiens
HRI = target: T2, HRI (Homo sapiens, UniProt Q9BQI3); assay: ISR kinase cell-free biochemical assay (Carna), HRI; conditions: ATP 30 µM
T2 construct: purchased Carna 05-154
Protocol: (§1) In brief, 26 was dissolved in DMSO and serially diluted 3-fold to generate concentrations ranging from 10 µM to 0.2 nM in a 384-well plate using a TECAN EVO200 automated liquid handler. 10 nL stock solution was transferred into each well of a 384well assay plate by an Echo550 and an equivalent volume of DMSO was added to the control wells. To each assay well, recombinant protein was suspended in 20 µL reaction buffer (listed below) and incubated at 25 °C for 1.5 h while shaking at 1250 rpm. Following incubation, 10 µL of a FRET dilution buffer including 20 mM EDTA and 4 nM Tb-anti-peIF2a [pSer51] (Invitrogen, Cat# PV4815) was added to each well and incubated at 25 °C for 2 h while shaking at 600 rpm in the dark. Analysis was performed using an Envision Microplate Reader (PerkinElmer).

PKR = target: T3, PKR (Homo sapiens, UniProt P19525); assay: ISR kinase cell-free biochemical assay (Carna), PKR; conditions: ATP 6 µM
T3 construct: purchased Carna 05-156
Protocol: as §1

[2] = PK of 26 in plasma and pancreas of BALB/c nude mice; type: in vivo, mouse; conditions: 0.3 to 30 mg/kg single oral gavage
Protocol: (§2) For PK analysis of pyrrolopyrimidine analogs in mouse, rat, and dog plasma, the oral formulation was prepared as a solution containing 20% (w/v) Captisol in 25 mM NaH2PO4 buffer (pH 2). Compounds were administered orally by gavage at 10 mg/kg to female CD1 mice. After dosing, plasma samples were collected to characterize the PK profiles at 0.25, 0.5, 1, 2, 4, 8, 12 and 24 h post-dose. The plasma concentration of compound was determined by protein precipitation with acetonitrile and liquid chromatography with mass spectrometric detection (LC-MS/MS). Parameters were estimated using Phoenix (WinNonlin) pharmacokinetic software version 6.1.0 using a non-compartmental approach consistent with the oral route of administration. PK analysis of 26 in plasma and pancreas followed a similar analytical method as above, with minor modifications. Compound 26 was suspended in a vehicle consisting of 0.5% methylcellulose (400 cP) and 0.1% Tween80 in water and administered to BALB/c nude mice by oral gavage at 0.3, 1, 3, 10, 30 mg/kg. Plasma and pancreas were sampled from 5 mice per group following a single oral administration at 1, 4, 8, 12, 24 h post-dose.

GCN2 = target: T4, GCN2 (Homo sapiens, UniProt Q9P2K8); assay: ISR kinase cell-free biochemical assay (Carna), GCN2; conditions: ATP 150 µM
T4 construct: purchased Carna 05-153
Protocol: as §1

phosphoPERK (T980) = assay: PERK autophosphorylation (pPERK/PERK) in mouse pancreas after oral dosing; type: in vivo; conditions: 30 mg/kg oral, 1 h
Protocol: as §2
Total protein was extracted from pancreas tissues sampled during PK studies described above. […]

FLT3 [3] = target: T1, FLT3; assay: Radiometric in vitro kinase activity assay, FLT3; type: biochemical; conditions: wild-type FLT3, radiometric, up to 10 μM

T2 sequence (Q9BQI3 whole entry): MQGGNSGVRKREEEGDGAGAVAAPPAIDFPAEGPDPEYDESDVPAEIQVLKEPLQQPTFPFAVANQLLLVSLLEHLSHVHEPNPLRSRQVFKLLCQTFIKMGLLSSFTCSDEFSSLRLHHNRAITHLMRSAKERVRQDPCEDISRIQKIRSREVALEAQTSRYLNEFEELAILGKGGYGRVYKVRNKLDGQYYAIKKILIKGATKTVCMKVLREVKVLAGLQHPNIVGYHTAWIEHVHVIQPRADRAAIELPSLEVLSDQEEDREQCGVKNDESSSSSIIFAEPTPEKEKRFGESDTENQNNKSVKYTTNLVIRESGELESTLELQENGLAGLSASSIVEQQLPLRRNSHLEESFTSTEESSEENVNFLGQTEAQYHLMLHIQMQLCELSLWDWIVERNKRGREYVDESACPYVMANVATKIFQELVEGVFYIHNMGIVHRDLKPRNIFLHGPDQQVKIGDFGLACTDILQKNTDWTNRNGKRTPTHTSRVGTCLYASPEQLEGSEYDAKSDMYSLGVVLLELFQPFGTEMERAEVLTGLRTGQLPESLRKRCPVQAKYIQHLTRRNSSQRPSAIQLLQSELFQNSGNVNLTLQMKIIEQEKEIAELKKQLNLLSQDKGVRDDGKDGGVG
T4 sequence (Q9P2K8 whole entry): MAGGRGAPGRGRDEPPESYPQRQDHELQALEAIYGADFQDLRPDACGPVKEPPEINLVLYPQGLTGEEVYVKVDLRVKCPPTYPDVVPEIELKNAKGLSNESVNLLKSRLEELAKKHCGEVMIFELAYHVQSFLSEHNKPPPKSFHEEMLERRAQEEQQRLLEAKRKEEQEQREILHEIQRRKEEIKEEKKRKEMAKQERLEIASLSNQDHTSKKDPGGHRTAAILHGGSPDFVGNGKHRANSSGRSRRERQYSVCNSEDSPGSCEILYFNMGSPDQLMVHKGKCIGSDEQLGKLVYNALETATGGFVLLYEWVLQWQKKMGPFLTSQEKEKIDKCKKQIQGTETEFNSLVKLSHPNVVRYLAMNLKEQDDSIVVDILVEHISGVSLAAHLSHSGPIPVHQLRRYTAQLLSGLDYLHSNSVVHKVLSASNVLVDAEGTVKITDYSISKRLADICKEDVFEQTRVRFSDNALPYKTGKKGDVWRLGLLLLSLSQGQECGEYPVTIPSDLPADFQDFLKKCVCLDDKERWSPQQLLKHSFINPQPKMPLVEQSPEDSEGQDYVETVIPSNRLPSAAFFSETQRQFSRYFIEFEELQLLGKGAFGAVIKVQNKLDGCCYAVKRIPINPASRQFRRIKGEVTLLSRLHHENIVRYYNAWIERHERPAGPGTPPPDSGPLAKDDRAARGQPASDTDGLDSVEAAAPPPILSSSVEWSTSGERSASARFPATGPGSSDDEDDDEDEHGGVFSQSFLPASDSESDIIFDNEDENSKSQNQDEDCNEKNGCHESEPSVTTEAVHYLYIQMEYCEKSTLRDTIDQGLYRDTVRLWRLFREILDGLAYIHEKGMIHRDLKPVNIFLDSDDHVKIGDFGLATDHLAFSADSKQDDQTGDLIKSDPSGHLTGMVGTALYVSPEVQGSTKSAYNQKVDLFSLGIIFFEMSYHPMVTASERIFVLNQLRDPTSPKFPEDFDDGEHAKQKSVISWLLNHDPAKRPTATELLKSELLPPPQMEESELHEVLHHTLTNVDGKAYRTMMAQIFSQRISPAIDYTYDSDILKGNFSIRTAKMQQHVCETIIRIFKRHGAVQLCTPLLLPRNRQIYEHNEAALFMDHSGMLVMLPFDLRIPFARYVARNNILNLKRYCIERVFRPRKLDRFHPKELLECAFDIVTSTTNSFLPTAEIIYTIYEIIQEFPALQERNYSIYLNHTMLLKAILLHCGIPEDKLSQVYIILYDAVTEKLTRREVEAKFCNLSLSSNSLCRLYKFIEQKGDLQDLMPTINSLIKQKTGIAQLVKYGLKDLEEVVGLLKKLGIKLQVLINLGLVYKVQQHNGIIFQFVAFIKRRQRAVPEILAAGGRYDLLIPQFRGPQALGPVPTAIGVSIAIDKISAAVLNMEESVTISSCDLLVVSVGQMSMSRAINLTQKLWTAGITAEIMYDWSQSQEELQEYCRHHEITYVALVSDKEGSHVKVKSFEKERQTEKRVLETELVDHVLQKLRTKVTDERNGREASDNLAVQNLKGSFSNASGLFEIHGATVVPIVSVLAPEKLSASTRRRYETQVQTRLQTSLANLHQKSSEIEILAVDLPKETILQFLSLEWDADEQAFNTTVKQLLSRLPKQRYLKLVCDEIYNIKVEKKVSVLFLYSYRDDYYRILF
T3 sequence (P19525 whole entry): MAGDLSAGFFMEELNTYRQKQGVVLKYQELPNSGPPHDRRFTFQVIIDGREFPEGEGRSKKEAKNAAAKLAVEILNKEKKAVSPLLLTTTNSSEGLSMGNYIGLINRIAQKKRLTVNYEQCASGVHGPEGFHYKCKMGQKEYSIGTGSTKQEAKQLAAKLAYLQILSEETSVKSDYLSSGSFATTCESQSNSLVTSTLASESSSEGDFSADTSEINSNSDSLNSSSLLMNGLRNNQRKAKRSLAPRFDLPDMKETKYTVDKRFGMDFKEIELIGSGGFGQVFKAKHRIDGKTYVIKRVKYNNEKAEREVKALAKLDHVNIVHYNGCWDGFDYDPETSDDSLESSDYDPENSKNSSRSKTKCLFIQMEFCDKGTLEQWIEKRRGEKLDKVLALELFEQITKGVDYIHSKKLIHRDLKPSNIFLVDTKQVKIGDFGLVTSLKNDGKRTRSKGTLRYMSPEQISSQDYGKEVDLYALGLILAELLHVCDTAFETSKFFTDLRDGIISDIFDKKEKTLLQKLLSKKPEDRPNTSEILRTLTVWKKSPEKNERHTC

In the case of `Cc1cc(NC(=O)[C@H](O)c2cccc(F)c2)ccc1-c1cn(C)c2ncnc(N)c12` [Compound 11, (R)-N-(4-(4-amino-7-methyl-7H-pyrrolo[2,3-d]pyrimidin-5-yl)-3-methylphenyl)-2-(3-fluorophenyl)-2-hydroxy acetamide], the remaining binding at 1 µM (FLT3 [1]) was 4.3%.

In the case of `Cc1nc(N)c2c(-c3ccc(NC(=O)[C@H](O)c4cccc(F)c4)cc3C)cn(C)c2n1` [Compound 24], the “tolerability by body weight measurement” value (786-O RCC xenografts) was “well tolerated”, the tumor growth inhibition (786-O RCC xenografts) was “significant tumor growth inhibition” and the remaining binding at 1 µM (FLT3 [1]) was 66%.

For `Cc1nc(N)c2c(-c3ccc(NC(=O)[C@H](O)c4cccc(C(F)(F)F)c4)cc3C)cn(C)c2n1` [Compound 26], the pIC50 (Kasumi-1 (FLT3wt)) was under 5.00, the “tolerability by body weight measurement” value (786-O RCC xenografts) was “well tolerated” and the tumor growth inhibition (786-O RCC xenografts) was “significant tumor growth inhibition”. The “effect on body weight” value (786-O RCC xenografts; 10 or 30 mg/kg, 28-day study period) was “No significant effects on body weght”, the tumor volume (786-O RCC xenografts; 10 or 30 mg/kg, 28 days) was “significantly decreased tumor volume” and the remaining binding at 0.1 µM (FLT3 [1]; 100 nM) was 41%. For the same molecule, the remaining binding at 1 µM (FLT3 [1]) was 0%, the pIC50 (HRI) was under 5.00 and the pIC50 (PKR) was under 5.00. The “exposure in plasma and pancreas” value [2] was “dose-proportionate exposure”, the pIC50 (GCN2) was under 5.00 and the “inhibition of pPERK/PERK in pancreas” value (phosphoPERK (T980)) was “approximately 80%”. The pIC50 (FLT3 [3]) was under 6.00.

With `Cc1nc(N)c2c(-c3ccc(NC(=O)[C@H](O)c4cccc(F)c4)c(F)c3F)cn(C)c2n1` [Compound 70, (R)-N-(4-(4-amino-2,7-dimethyl-7H-pyrrolo[2,3-d]pyrimidin-5-yl)-2,3-difluorophenyl)-2-(3-fluorophenyl)-2-hydroxyacetamide] the “tolerability by body weight measurement” value (786-O RCC xenografts) was “well tolerated” and the tumor growth inhibition (786-O RCC xenografts) was “significant tumor growth inhibition”.
